Experimental data as given in BindingDB's records for doi:10.1021/jm050532w (Glaxosmithkline, 2005).

Experiments:
[1] = target: T1, Oxysterols receptor LXR-beta (Homo sapiens, UniProt P55055); test: Cell-Free Ligand Sensing Assay (LiSA)-LXRbeta-SRC1 Assay; details: pH 7.5; 22 °C
T1 sequence (P55055 whole entry): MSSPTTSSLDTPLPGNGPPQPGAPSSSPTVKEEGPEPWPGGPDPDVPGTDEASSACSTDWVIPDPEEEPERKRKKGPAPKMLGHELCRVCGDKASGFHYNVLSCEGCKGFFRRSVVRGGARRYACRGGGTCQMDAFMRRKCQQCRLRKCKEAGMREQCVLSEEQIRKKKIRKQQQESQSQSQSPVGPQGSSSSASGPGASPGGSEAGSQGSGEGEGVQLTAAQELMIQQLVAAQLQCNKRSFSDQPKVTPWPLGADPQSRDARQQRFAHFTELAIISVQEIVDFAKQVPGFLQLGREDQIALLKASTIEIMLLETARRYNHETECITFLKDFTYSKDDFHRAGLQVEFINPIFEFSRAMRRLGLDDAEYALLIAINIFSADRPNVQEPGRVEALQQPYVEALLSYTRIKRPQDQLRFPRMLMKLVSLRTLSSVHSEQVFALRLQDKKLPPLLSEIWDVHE
Protocol: (§1) The LXR LiSA measures the ligand-dependent recruitment of a 25 amino acid fragment of the steroid receptor coactivator 1 (SRC1) to the ligand-binding domain of the receptor. The biotinylated protein was incubated with streptavidin-AlloPhycoCyanin, biotinylated SRC-1 peptide, and streptavidin-labeled europium. The fluorescence resonance energy transfer was then counted on a Wallac Victor fluorescent plate reader in a time-resolved mode.

[2] = target: T2, Oxysterols receptor LXR-alpha (Homo sapiens, UniProt Q13133); test: Cell-Free Ligand Sensing Assay (LiSA)-LXRalpha-SRC1 Assay; details: pH 7.5; 22 °C
T2 sequence (Q13133 whole entry): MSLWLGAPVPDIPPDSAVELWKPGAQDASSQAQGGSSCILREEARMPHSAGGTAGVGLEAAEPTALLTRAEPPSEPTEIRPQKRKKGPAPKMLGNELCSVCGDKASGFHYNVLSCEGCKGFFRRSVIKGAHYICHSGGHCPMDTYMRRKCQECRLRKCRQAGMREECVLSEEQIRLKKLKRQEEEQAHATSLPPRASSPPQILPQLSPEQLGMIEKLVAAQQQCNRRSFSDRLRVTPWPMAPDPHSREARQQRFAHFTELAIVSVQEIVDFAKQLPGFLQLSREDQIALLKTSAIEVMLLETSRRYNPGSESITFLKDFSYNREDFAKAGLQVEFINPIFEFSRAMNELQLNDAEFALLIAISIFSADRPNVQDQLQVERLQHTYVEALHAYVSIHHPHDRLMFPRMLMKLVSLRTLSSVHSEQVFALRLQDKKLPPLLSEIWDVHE
Protocol: as §1

Compound: COc1ccc(N=C2C(=O)N(c3ccccc3)C(=O)C2c2ccccc2)cc1 (configuration not stated) [3-[(4-methoxyphenyl)amino]-1,4-diphenyl-2,5-dihydro-1H-pyrrole-2,5-dione]
- EC50 [1]: 0.26 µM
- EC50 [2]: 0.275 µM
